In US5977065A, “Bacterial nitroreductase for the reduction of CB1954 and analogues thereof to a cytotoxic form” (Cancer Research Campaign Technology Limited, priority 1991, dated 1999):

Columns and labels:
E. coli nitroreductase [1] = molecular target: T1, E. coli nitroreductase (Escherichia coli, UniProt P38489); test: Cofactor ability for the reduction of CB 1954 (FIG. 1); type: biochemical; conditions: compared with NADH; CB 1954 100 μM, reduced cofactor 500 μM
T1 construct: endogenous in cells; host or cells: E. coli B cell paste; endogenous enzyme purified by Phenyl-Sepharose and Q-Sepharose chromatography, not recombinant
T1 sequence (P38489 whole entry): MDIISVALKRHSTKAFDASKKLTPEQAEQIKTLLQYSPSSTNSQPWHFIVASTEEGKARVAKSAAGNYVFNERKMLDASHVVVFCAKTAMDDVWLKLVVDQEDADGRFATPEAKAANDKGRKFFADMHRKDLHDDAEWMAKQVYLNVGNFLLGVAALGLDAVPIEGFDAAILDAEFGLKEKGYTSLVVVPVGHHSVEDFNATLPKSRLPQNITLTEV
Experimental: (§1) At various times aliquots (10 μl) were injected onto a Partisil SCX (240×4.7 mm) HPLC column and eluted isocratically (2 ml/min) with 100 mM NaH2 PO4. The eluate was continuously monitored for absorption at 320, 260 and 360 nm and the concentration of CB 1954 calculated by integration of the peak corresponding to this compound on the HPLC trace.
(§2) The ability of the nitroreductase enzyme to be able to use a synthetic cofactor in place of NADH or NADPH for the reduction of CB 1954 is shown in FIG. 1. […] Therefore 1,4-dihydro-nicotinic acid riboside is a selective cofactor for the E. coli nitroreductase enzyme and cannot be used by mammalian DT diaphorase.

Walker DT diaphorase = molecular target: T2, Walker DT diaphorase (Rattus norvegicus, UniProt P05982); test: as above; type: biochemical; conditions: CB 1954 100 μM, reduced cofactor 500 μM
T2 construct: the enzyme isolated from the Walker tumour, EC.1.6.99.2; from tissue; host or cells: Walker tumour (Walker cell)
T2 sequence (P05982 2-274 limits assumed): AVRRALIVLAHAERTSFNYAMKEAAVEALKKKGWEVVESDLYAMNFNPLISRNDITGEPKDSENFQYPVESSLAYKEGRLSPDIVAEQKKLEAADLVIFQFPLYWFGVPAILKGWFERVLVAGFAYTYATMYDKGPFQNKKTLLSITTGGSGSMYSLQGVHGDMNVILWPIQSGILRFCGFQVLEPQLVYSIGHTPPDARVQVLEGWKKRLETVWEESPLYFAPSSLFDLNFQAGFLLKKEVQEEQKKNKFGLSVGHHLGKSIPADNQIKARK
Experimental: as §1, §2

E. coli nitroreductase [2] = molecular target: T1, E. coli nitroreductase; test: Enzymatic reduction of CB 1954 followed by HPLC; type: biochemical, E. coli B
Experimental: Enzymatic reduction of CB 1954. CB 1954 (100 μM and also containing [U-^3 H] C.B 1954 at 1.6×10^5 dpm per nmole), NADH or NAD(P)H (500 μM) were incubated with the active enzyme obtained as described in Example 1, (generally 2 μg/ml E. coli nitroreductase or 35 μg/ml Walker NAD(P)H dehydrogenase (quinone) EC 1.6.99.2) in 10 mM sodium phosphate buffer (pH 7) under either air or helium. At various times aliquots (10 μl) were injected onto a Partisphere SCX (110×4.7 mm) HPLC column and eluted isocratically (2 ml/min) with 100 mM NaH2 PO4.
(§3) The eluate was continuously monitored for adsorption at 310, 260 and 360 nm and the spectra of eluting components recorded using a diode-array detector. Samples (0.5 ml) were collected and the tritium activity of each determined by liquid scintillation counting. This separation system could resolve all the expected reduction products.
(§4) To confirm further the identity of any reduction products, the above reduction mixture was also injected onto an ODS-5 reverse phase HPLC column and eluted (1 ml/min) with a methanol gradient (0-30% linear over 30 min, 30-100% linear over 10 min.) in 0.1 M sodium phosphate buffer (pH 7).

[3] = molecular target: T3, Walker NAD(P)H dehydrogenase (quinone) EC 1.6.99.2 (Rattus norvegicus, UniProt P05982); test: Enzymatic reduction of CB 1954 followed by HPLC; type: biochemical; conditions: reduction of 50 μM of CB 1954
T3 construct: the enzyme isolated from the Walker tumour, EC.1.6.99.2; from tissue; host or cells: Walker tumour (Walker cell)
T3 sequence (P05982 2-274 limits assumed): T2 sequence (P05982 2-274 limits assumed)
Experimental: Enzymatic reduction of CB 1954. […] At various times aliquots (10 μl) were injected onto a Partisphere SCX (110×4.7 mm) HPLC column and eluted isocratically (2 ml/min) with 100 mM NaH2 PO4.
as §3, §4

V79 cells = test: Survival (colony-forming ability) of V79 cells treated with CB 1954 in the presence of E. coli B nitroreductase (Table 4); type: cell-based, Hamster
Experimental: (§5) E. coli B nitroreductase. All treatments were for 2 hours at 37°
(§6) cells were then plated out for their resulting colony-forming ability.
(§7) nitroreductase concentration was 2 μg/ml and NADH was used as a […]

E. coli B nitroreductase [4] = molecular target: T4, E. coli B nitroreductase (Escherichia coli, UniProt P38489); test: % drug reduction in the V79 incubations (Table 4); type: biochemical
T4 construct: endogenous in cells; host or cells: E. coli B cell paste; endogenous enzyme purified by Phenyl-Sepharose and Q-Sepharose chromatography, not recombinant
T4 sequence (P38489 whole entry): as the sequence (P38489 whole entry) above
Experimental: The effect of CB 1954 on the survival of V79 cells in the presence of the
as §5, §6, §7

E. coli nitroreductase [5] = molecular target: T1, E. coli nitroreductase; test: Substrate specificity: relative rate of NADH oxidation by HPLC (Table 5); type: biochemical; conditions: relative to CB 1954; 37° C. in air, NADH 500 μM, substrate 100 μM
Experimental: The ability of the E. coli nitroreductase of the invention to reduce nitro-compounds other than CB 1954 was determined by HPLC by following the decrease in the peak area of NADH resulting from its oxidation. The experiments were carried out as above but the aliquots were injected onto a Partisphere SAX (110×4.7 mm) HPLC column and eluted isocratically (1 ml/min) with 75 mM NaH2 PO4.
The relative rates of reduction of various nitrobenzamides and
nitrobenzenes with E. coli nitroreductase enzyme. Reduction
rates were determined by the resulting oxidation of NADH. All
reactions were carried out at 37° C. in air, with NADH (500
electron donor, at an initial substrate concentration of 100 μM.

E. coli B nitroreductase [6] = molecular target: T4, E. coli B nitroreductase; test: Enzyme kinetic and inhibition studies; type: biochemical; conditions: saturating conditions
Experimental: Protein concentration was determined using the a conventional protein assay (Bio-Rad) calibrated against bovine serum albumin.

[7] = NR 2 μg/ml + 50 μM CB 1954, no NADH
[8] = NR 2 μg/ml + CB 1954 + 500 μM NADH

With `O=C(O)C1=CN([C@@H]2O[C@H](CO)[C@@H](O)[C@H]2O)C=CC1` [1,4-dihydro-nicotinic acid riboside] the “ability to act as a cofactor for the reduction of CB 1954” value (E. coli nitroreductase [1]) was “equal efficiency” and the “ability to act as a cofactor for the reduction of CB 1954” value (Walker DT diaphorase) was “cannot utilise”.
In the case of `NC(=O)c1cc(N2CC2)c([N+](=O)[O-])cc1[N+](=O)[O-]` [CB 1954, 5-(aziridin-1-yl)-2,4-dinitrobenzamide], the “rate of reduction of CB 1954 or product formation” value (E. coli nitroreductase [2]; co-factor NAD(P)H or NADH, under helium) is reported as “the same”, the “nitroreductase more active per mg protein than NAD(P)H dehydrogenase (quinone), initial rates of 4-hydroxylamine formation” value (E. coli nitroreductase [2]; standard conditions) is reported as 31.2 fold and the “nitroreductase more active than NAD(P)H dehydrogenase (quinone) by CB 1954 reduction” value (E. coli nitroreductase [2]; standard conditions) is reported as 62 fold. For the same molecule, the 4-hydroxylamine formed (E. coli nitroreductase [2]; when 67 μM of CB 1954 was reduced) was 33 µM, the 4-hydroxylamine formed [3] was 50 µM and the “% SURVIVAL” value (V79 cells; 50 μM CB 1954, 2 hours 37° C.) was 100%. For the same molecule, the “% SURVIVAL” value (V79 cells; NADH + CB 1954, no enzyme, 2 hours 37° C.) was 41%, the “% SURVIVAL” value (V79 cells; [7]) was 99% and the “% SURVIVAL” value (V79 cells; [8]) was 0.024%. The “% DRUG REDUCTION” value (E. coli B nitroreductase [4]; 50 μM CB 1954 alone) was less than 1.0%, the “% DRUG REDUCTION” value (E. coli B nitroreductase [4]; NADH + CB 1954, no enzyme) was less than 1.0% and the “% DRUG REDUCTION” value (E. coli B nitroreductase [4]; [7]) was less than 1.0%. The “% DRUG REDUCTION” value (E. coli B nitroreductase [4]; [8]) was 72%, the “RELATIVE RATE OF NADH OXIDATION NR” value (E. coli nitroreductase [5]) was 1.0 and the “kcat for CB 1954 reduction higher for the E. coli nitroreductase than Walker enzyme” value (E. coli B nitroreductase [6]) was 90 fold.
